Assay results published in ChEMBL document CHEMBL5518235, “Identification of Novel Series of Potent and Selective Relaxin Family Peptide Receptor 1 (RXFP1) Agonists” (J Med Chem, 2024).
Values after ≈ are worked out from the molar mass of the structure shown. Active and inactive are the calls of the source. The calls are words filed in the database; no cut-off is given here.

Columns and labels:
[1] = Volume of distribution at steady state in Han Wistar rat at 0.76 micromol/kg, iv by LC-MS/MS analysis; format: ADME, organism-based; details: in vivo, dose 0.76 µmol/kg, read-out: Vdss
[2] = Metabolic stability in cryopreserved human hepatocytes assessed as intrinsic clearance measured per 10^6 cells at 1 uM after 120 mins by LC-MS/MS analysis; format: ADME, cell-based, Hepatocyte; details: for hepatocyte CLint at 1 µM: cryopreserved hepatocytes, read-out: CLH
[3] = Metabolic stability in Han Wistar rat hepatocytes assessed as unbound intrinsic clearance measured per 10^6 cells at 1 uM after 120 mins by LC-MS/MS analysis; format: ADME, cell-based, Hepatocyte; details: 2 h
[4] = target: T1, Relaxin receptor 1 (Rattus norvegicus) (UniProt Q6R6I6); experiment: Agonist activity at rat RXFP1 expressed in T-Rex-CHO-K1 cells assessed as stimulation of cAMP production by measuring maximal efficacy incubated for 60 mins by HTRF assay relative to control; format: functional, cell-based; details: filed as agonist
T1 sequence (whole entry): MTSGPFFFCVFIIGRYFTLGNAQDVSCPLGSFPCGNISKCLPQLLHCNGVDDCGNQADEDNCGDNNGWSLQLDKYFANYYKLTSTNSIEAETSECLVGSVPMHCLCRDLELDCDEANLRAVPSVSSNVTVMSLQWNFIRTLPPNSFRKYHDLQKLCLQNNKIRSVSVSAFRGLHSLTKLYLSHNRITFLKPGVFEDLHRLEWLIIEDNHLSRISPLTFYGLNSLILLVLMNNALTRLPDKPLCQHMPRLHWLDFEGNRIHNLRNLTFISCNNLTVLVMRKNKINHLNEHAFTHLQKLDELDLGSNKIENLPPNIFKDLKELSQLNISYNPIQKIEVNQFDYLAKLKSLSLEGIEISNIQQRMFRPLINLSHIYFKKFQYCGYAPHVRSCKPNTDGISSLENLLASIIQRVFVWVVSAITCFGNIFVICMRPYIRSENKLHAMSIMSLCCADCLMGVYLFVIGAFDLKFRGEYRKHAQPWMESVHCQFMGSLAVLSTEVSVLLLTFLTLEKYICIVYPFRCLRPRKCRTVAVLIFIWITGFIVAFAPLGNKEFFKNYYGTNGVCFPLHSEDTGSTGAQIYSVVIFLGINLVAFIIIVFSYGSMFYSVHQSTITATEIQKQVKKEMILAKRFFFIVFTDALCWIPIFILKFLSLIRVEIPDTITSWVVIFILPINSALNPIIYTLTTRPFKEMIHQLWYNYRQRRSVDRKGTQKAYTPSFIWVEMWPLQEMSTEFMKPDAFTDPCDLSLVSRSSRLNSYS

Relaxin receptor 1 [5] = target: T2, Relaxin receptor 1 (Homo sapiens, UniProt Q9HBX9); experiment: Agonist activity at human RXFP1 expressed in T-Rex-CHO-K1 cells assessed as stimulation of cAMP production incubated for 45 mins by HTRF assay; format: functional, cell-based
T2 sequence (Q9HBX9 whole entry): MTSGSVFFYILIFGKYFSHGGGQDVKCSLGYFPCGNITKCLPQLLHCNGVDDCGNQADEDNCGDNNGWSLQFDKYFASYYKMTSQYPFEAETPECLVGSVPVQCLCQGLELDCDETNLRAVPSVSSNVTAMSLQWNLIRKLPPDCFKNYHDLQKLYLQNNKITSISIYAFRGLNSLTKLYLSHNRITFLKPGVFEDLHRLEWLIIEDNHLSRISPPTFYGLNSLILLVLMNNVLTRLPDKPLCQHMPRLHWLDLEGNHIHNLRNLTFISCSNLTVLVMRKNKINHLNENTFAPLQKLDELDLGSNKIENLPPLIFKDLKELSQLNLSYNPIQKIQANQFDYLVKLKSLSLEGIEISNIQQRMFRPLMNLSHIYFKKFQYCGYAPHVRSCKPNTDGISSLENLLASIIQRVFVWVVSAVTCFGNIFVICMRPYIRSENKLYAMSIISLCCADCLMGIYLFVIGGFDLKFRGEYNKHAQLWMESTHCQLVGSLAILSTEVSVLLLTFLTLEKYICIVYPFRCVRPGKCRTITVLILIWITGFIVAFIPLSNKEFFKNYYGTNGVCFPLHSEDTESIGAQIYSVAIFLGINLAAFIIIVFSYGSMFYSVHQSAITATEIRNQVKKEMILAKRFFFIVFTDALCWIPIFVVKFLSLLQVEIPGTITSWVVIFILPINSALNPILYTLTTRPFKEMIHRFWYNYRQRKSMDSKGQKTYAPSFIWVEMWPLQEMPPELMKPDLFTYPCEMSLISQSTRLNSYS

[6] = Metabolic stability in Han Wistar rat hepatocytes assessed as intrinsic clearance measured per 10^6 cells at 1 uM after 120 mins by LC-MS/MS analysis; format: ADME, cell-based, Hepatocyte; details: read-out: CLH
[7] = Half-life in Han Wistar rat at 0.76 micromol/kg, iv by LC-MS/MS analysis; format: ADME, organism-based; details: in vivo, dose 0.76 µmol/kg
Relaxin receptor 1 [8] = target: T3, Relaxin receptor 1 (Rattus norvegicus, UniProt Q6R6I6); experiment: Agonist activity at rat RXFP1 expressed in T-Rex-CHO-K1 cells assessed as stimulation of cAMP production incubated for 60 mins by HTRF assay; format: functional, cell-based
T3 sequence (Q6R6I6 whole entry): T1 sequence (whole entry)

[9] = Oral bioavailability in Han Wistar rat at 1.52 micromol/kg by LC-MS/MS analysis; format: ADME, organism-based; details: in vivo, 1.52 µmol/kg
[10] = Metabolic stability in cryopreserved human hepatocytes assessed as unbound intrinsic clearance measured per 10^6 cells at 1 uM measured after 120 mins by LC-MS/MS analysis; format: ADME, cell-based, Hepatocyte; details: 2 h
[11] = target: T4, Relaxin receptor 1 (Homo sapiens) (UniProt Q9HBX9); experiment: Agonist activity at human RXFP1 expressed in T-Rex-CHO-K1 cells assessed as stimulation of cAMP production by measuring maximal efficacy at 50 uM incubated for 45 mins by HTRF assay relative to control; format: functional, cell-based; details: filed as agonist
T4 sequence (whole entry): T2 sequence (Q9HBX9 whole entry)

[12] = Clearance in Han Wistar rat at 0.76 micromol/kg, iv by LC-MS/MS analysis; format: ADME, organism-based; details: in vivo, dose 0.76 µmol/kg
[13] = Lipophilicity, logD of the compound in 1-octanol and phosphate buffer at pH 7.4 incubated for 3 hrs by shake flask method based LC/MS/MS analysis; format: physicochemical; details: 1-octanol/phosphate buffer, pH 7.4
[14] = Protein binding in rat plasma assessed as free fraction at 5 uM incubated for 18 hrs by equilibrium dialysis based LC-MS/MS analysis; format: ADME, cell-free
[15] = target: T1, Relaxin receptor 1 (Rattus norvegicus); experiment: In vivo agonist activity at RXFP1 in Sprague-Dawley rat assessed as hemodynamic effect by measuring increase in blood pressure at 3.5 mg/kg, iv administered via bolus followed by 6.0 mg/kg, iv administered via infusion for 3 hrs and measured 1 hrs post washout; format: functional, organism-based
[16] = Cytotoxicity against human HepG2 cells cultured under galactose condition assessed as reduction in cell viability; format: toxicity, cell-based
[17] = Metabolic stability in Han Wistar rat hepatocytes assessed as unbound intrinsic clearance measured […] at 1 uM after 120 mins by LC-MS/MS analysis; format: ADME, cell-based, Hepatocyte; details: 2 h
[18] = Unbound Cmax in Sprague-Dawley rat at 3.5 mg/kg, iv administered via bolus followed by 6.0 mg/kg, iv administered via infusion for 3 hrs and measured 1 hrs post washout by LC-MS/MS analysis; format: ADME, organism-based; details: in vivo
[19] = Clearance in Han Wistar rat at 0.73 micromol/kg, iv by LC-MS/MS analysis; format: ADME, organism-based; details: in vivo, dose 0.73 µmol/kg
[20] = Half-life in Han Wistar rat at 0.73 micromol/kg, iv by LC-MS/MS analysis; format: ADME, organism-based; details: in vivo, dose 0.73 µmol/kg
[21] = Cytotoxicity against human HepG2 cells cultured under glucose condition assessed as reduction in cell viability; format: toxicity, cell-based
[22] = Volume of distribution at steady state in Han Wistar rat at 0.73 micromol/kg, iv by LC-MS/MS analysis; format: ADME, organism-based; details: in vivo, dose 0.73 µmol/kg, read-out: Vdss
[23] = target: Voltage-gated inwardly rectifying potassium channel KCNH2 (Homo sapiens, UniProt Q12809); experiment: Inhibition of human ERG by automated electrophysiology recording; format: toxicity
[24] = Cytotoxicity against human HepG2 cells cultured as C3a spheroids assessed as reduction in cell viability; format: toxicity, cell-based
[25] = target: T1, Relaxin receptor 1 (Rattus norvegicus); experiment: In vivo agonist activity at RXFP1 in Sprague-Dawley rat assessed as hemodynamic effect by measuring increase in heart rate at 3.5 mg/kg, iv administered via bolus followed by 6.0 mg/kg, iv administered via infusion for 3 hrs and measured 1 hrs post washout; format: functional, organism-based
Bile salt export pump = Bile salt export pump (Homo sapiens, UniProt O95342); experiment: Inhibition of BSEP (unknown origin) by membrane vesicle assay; format: toxicity
[26] = Cytotoxicity against human THP-1 cells assessed as reduction of cell viability incubated for 48 hrs by resazurin reduction assay; format: toxicity, cell-based
[27] = Half-life in Han Wistar rat at 0.99 micromol/kg, iv by LC-MS/MS analysis; format: ADME, organism-based; details: in vivo, dose 0.99 µmol/kg
[28] = Oral bioavailability in Han Wistar rat at 2.0 micromol/kg by LC-MS/MS analysis; format: ADME, organism-based; details: in vivo, 2 µmol/kg
[29] = Clearance in Han Wistar rat at 0.99 micromol/kg, iv by LC-MS/MS analysis; format: ADME, organism-based; details: in vivo, dose 0.99 µmol/kg
[30] = Metabolic stability in human liver microsomes assessed as unbound intrinsic clearance at 1 uM incubated for 30 mins in presence of NADPH by LC-MS/MS analysis; format: ADME, Microsome; details: 0.5 h
[31] = Metabolic stability in human liver microsomes assessed as unbound fraction at 1 uM incubated for 4 hrs by equilibrium dialysis based LC-MS/MS analysis; format: ADME, Microsome
[32] = Metabolic stability in human liver microsomes assessed as intrinsic clearance at 1 uM incubated for 30 mins in presence of NADPH by LC-MS/MS analysis; format: ADME, Microsome; details: liver microsomes, read-out: CLH
[33] = Kinetic solubility of compound at pH 7.4 incubated for 24 hrs by shake-flask method based LC-MS/MS analysis; format: physicochemical; details: buffer, read-out: Kinetic_solubility
[34] = target: T1, Relaxin receptor 1 (Rattus norvegicus); experiment: Agonist activity at rat RXFP1 expressed in T-Rex-CHO-K1 cells assessed as stimulation of cAMP production at 40 uM incubated for 45 mins by HTRF assay; format: functional, cell-based
[35] = Volume of distribution at steady state in Han Wistar rat at 0.99 micromol/kg, iv by LC-MS/MS analysis; format: ADME, organism-based; details: in vivo, dose 0.99 µmol/kg, read-out: Vdss
[36] = Metabolic stability in rat hepatocytes assessed as unbound fraction at 1 uM incubated for 4 hrs by equilibrium dialysis based LC-MS/MS analysis; format: ADME, cell-based, Hepatocyte
[37] = target: T4, Relaxin receptor 1 (Homo sapiens); experiment: Displacement of [125I]relaxin H2 from human RXFP1 expressed in CHO cells incubated for 90 mins by radioligand binding assay; format: cell-based

Sequence of Voltage-gated inwardly rectifying potassium channel KCNH2 (Q12809 whole entry): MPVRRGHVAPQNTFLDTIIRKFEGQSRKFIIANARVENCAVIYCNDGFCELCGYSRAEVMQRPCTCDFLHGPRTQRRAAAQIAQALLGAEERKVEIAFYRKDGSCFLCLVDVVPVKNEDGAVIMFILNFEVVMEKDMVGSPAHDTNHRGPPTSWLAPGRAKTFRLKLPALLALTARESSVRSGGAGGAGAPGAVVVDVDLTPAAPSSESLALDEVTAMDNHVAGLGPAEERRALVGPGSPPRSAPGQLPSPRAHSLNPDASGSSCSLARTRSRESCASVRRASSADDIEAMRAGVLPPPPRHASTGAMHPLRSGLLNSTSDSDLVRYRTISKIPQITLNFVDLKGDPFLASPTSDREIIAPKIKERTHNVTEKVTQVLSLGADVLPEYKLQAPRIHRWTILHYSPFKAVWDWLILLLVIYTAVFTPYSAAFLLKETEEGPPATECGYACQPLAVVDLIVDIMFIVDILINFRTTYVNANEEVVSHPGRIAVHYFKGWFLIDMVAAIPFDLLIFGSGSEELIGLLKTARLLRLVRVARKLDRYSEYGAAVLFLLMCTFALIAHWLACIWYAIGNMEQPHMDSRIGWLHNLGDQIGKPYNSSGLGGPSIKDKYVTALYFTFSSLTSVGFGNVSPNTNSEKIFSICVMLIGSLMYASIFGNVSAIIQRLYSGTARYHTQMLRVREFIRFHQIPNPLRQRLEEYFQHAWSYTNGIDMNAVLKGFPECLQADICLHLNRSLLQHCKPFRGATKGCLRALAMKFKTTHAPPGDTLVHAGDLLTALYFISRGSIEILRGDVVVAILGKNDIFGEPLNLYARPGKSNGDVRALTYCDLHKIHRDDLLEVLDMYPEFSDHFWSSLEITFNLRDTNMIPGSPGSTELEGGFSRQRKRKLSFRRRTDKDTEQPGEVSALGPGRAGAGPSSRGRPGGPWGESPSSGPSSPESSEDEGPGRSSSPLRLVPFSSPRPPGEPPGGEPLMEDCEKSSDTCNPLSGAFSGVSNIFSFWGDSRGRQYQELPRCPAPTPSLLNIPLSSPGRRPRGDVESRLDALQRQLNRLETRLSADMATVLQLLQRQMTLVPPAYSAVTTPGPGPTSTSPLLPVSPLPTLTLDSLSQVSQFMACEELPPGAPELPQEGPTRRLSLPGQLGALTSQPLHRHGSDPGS
Sequence of Bile salt export pump (O95342 whole entry): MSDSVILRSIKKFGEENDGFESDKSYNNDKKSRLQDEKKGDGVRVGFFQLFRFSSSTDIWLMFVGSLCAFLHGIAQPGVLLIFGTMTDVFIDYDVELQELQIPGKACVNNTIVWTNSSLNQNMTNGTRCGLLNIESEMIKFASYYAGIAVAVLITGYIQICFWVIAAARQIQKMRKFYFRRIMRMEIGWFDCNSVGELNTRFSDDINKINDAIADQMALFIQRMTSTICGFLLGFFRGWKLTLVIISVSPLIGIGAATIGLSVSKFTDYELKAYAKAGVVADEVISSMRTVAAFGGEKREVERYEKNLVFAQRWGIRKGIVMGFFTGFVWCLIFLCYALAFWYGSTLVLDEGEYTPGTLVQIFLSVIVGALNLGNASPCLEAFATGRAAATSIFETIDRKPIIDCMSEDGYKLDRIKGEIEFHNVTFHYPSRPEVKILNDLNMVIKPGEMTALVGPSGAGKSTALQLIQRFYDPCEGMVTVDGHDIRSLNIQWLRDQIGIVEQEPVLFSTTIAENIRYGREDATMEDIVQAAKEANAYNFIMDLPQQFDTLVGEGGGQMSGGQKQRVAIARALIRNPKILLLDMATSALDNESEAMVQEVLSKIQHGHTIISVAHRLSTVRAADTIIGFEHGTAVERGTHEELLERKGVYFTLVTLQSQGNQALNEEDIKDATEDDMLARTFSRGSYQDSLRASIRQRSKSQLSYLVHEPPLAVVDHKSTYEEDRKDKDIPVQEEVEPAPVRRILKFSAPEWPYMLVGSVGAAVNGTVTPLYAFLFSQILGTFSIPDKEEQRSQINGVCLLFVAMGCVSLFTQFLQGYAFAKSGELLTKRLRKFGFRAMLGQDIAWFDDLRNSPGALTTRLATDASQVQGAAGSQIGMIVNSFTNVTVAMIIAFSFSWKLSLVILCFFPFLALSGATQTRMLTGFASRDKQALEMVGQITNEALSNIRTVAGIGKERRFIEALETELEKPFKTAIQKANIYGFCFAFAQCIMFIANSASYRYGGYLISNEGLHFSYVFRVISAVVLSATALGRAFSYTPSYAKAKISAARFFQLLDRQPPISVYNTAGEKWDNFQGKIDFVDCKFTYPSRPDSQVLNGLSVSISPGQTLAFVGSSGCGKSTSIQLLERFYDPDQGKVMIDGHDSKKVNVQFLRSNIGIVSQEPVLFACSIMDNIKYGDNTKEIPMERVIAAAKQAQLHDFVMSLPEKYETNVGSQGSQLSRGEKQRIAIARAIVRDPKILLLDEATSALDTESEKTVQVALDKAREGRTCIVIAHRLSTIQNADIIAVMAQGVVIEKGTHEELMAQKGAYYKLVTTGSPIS

Structure (SMILES) | hepatocyte CLint at 1 µM [2] | Emax [4] | EC50 (Relaxin receptor 1 [5]) | hepatocyte CLint at 1 µM [6] | EC50 (Relaxin receptor 1 [8]) | CL free [10] | Emax [11] | logD at 3 h [13] | fraction unbound at 18 h, 5 µM [14] | CL free [17] | also measured
COc1cc(F)c(O[C@H]2CC[C@@H](C(=O)O)CC2)cc1C(=O)N[C@@H]1[C@H]2CC[C@H](C2)[C@@H]1C(=O)Nc1cccc(S(=O)(=O)C(F)(F)F)c1 | 15 µL/min/1e6 cells | 43% | 0.0398 µM | 23 µL/min/1e6 cells | 10 µM | 259 µL/min | 102% | 3.5 | 0.011 | – | Vd [1]: 1.7 L/kg; CL free [3]: 397 µL/min; half-life [7]: 1.2 h; bioavailability [9]: 2.6%; clearance [12]: 76 mL/min/kg
COc1cc(F)c(O[C@H]2CC[C@@](C)(C(=O)O)CC2)cc1C(=O)N[C@H]1[C@@H]2CC[C@@H](C2)[C@H]1C(=O)Nc1ccc(F)c(S(F)(F)(F)(F)F)c1 | – | 128% | 3.98 µM | 14 µL/min/1e6 cells | 7.94 µM | 7 10^3uL/min | 103% | 4.5 | 0.0013 | 2 µL/min | CLH ([2]; hepatocytes, 2 h, 1 µM): 49 µL/min/1e6 cells; Activity [15]: inactive; IC50 [16]: 122 µM; fCmax [18]: 12 nM; clearance [19]: 14 mL/min/kg; half-life [20]: 2.3 h; IC50 [21]: 134 µM; Vd [22]: 1.5 L/kg; IC50 [23]: 33 µM; IC50 [24]: 34 µM; Activity [25]: inactive; IC50 (Bile salt export pump): 97 µM; IC50 at 48 h [26]: 11 µM
CC(C)Oc1ccccc1C(=O)Nc1ccccc1C(=O)Nc1cccc(S(=O)(=O)C(F)(F)F)c1 | 12.6 µL/min/1e6 cells | – | – | 22 µL/min/1e6 cells | – | 3.07 10^3uL/min | – | > 4 | < 0.0002 | 5.4 µL/min | half-life [27]: 4.3 h; bioavailability [28]: 40%; clearance [29]: 30 mL/min/kg; CL free [30]: 37 10^3uL/min/mg; fraction unbound at 4 h, 1 µM [31]: 2e-05; microsomal CLint at 1 µM [32]: 55 µL/min/mg; solubility kinetic at 24 h [33]: 1 µM (≈ 0.507 µg/mL); Activity [34]: inactive; Vd [35]: 7.7 L/kg; fraction unbound at 4 h, 1 µM [36]: 4e-05
COc1cc(F)c(O[C@H]2CC[C@@H](C(=O)O)CC2)cc1C(=O)N[C@H]1[C@@H](C(=O)Nc2ccc(F)c(C(F)(F)F)c2)[C@@H]2C=C[C@H]1C2 | 7.7 µL/min/1e6 cells | – | 0.0158 µM | – | – | 175 µL/min | 124% | 3.55 | – | – | Activity [37]: inactive
